# From US20200261398A1, “METHOD FOR FIRST-LINE TREATMENT OF ROSACEA” (Sol-Gel Technologies Ltd., priority 2019, published 2020)
# Legend:
# [1] = system: patients afflicted with papulopustular rosacea; experiment: Investigator Global Assessment (IGA) success, 12-week vehicle-controlled study of E-BPO 5% cream; assay type: in vivo, human
# Procedure: (§1) A multi-center, double-blind, randomized, vehicle-controlled, dose-range study of encapsulated 5% benzoyl peroxide (E-BPO) Cream and vehicle cream was performed to assess the efficacy and safety of E-BPO compared to vehicle. Study duration was 12 weeks and included approximately 350 male and female patients afflicted with papulopustular rosacea. Patients were at least 18 years of age, and met the inclusion/exclusion criteria described herein.
# Patients were randomized in a 2:1 ratio to the study product or vehicle treatment group, respectively. […]
# Patients were admitted into the study after meeting all inclusion/exclusion criteria, including a clinical diagnosis of rosacea and after written informed consent has been obtained. […] At each visit, a 5-point IGA scale of rosacea; rosacea erythema, and telangiectasia; and inflammatory (papules, pustules) lesion counts were performed and recorded.
# (§2) The first application of the test product was applied at the investigational site at the end of the Baseline visit (Day 0) under the supervision and instruction of the designated investigational site staff. […] The evaluator also assessed local application site irritation (dryness, scaling, pruritus, stinging and burning) at Baseline and Weeks 2, 4, 8 and 12 (end of study). […]
# [2] = system: patients afflicted with papulopustular rosacea; experiment: Inflammatory lesion (papules, pustules) count, 12-week vehicle-controlled study of E-BPO 5% cream; assay type: in vivo, human
# Procedure: as §1
# Patients were randomized in a 2:1 ratio to the study product or vehicle treatment group, respectively. Patients applied the study product once daily for 12 weeks on the face (chin, left cheek, right cheek, nose, left forehead and right forehead) in a thin layer to provide even distribution, and avoid the eyes, lips, inside the nose, mouth and all mucous membranes.
# Patients were admitted into the study after meeting all inclusion/exclusion criteria, including a clinical diagnosis of rosacea and after written informed consent has been obtained. Subjects with severe rosacea who are appropriate for systemic treatment need to be counseled regarding their treatment options by the Principal Investigator. At each visit, a 5-point IGA scale of rosacea; rosacea erythema, and telangiectasia; and inflammatory (papules, pustules) lesion counts were performed and recorded.
# The first application of the test product was applied at the investigational site at the end of the Baseline visit (Day 0) under the supervision and instruction of the designated investigational site staff. The investigator performed the Investigator Global Assessment (IGA) and inflammatory lesion (papules and pustules) counts at Screening, Baseline, and Weeks 4, 8, and 12 (end of study) and erythema and telangiectasia assessments at Baseline, and Weeks 4, 8, and 12 (end of study). The evaluator also assessed local application site irritation (dryness, scaling, pruritus, stinging and burning) at Baseline and Weeks 2, 4, 8 and 12 (end of study). At selected investigational site(s), standardized photography of facial rosacea also was performed at Baseline and Week 8 and 12 (end of study).
# The absolute change (primary measure of success) and percent change (secondary measure of success) from baseline of inflammatory lesions was derived for each patient at Weeks 2, 4, 8 and 12. The IGA was recorded for each patient at Baseline, Weeks 2, 4, 8 and 12. Weeks 2, 4, 8 and 12 with a patient were considered a success for those visits if the IGA was at least 2 grades less than baseline and are Clear or Almost Clear. Data from two sets of experiments—Drug 01+Vehicle 01 and Drug 02+Vehicle 02—are included herewith for each measurement
# The proportions of subjects with a secondary measure of success (defined as change in the mean inflammatory lesion count from Baseline to Weeks 2, 4, 8 and 12) are shown in Tables 2A, 2B, 3A and 3B, and FIGS. 2 and 3.
# [3] = system: patients afflicted with papulopustular rosacea; experiment: Cutaneous Safety Assessment (dryness, scaling) and Local Tolerability Assessment (itching, burning/stinging), 12-week study of E-BPO 5% cream; assay type: in vivo, human; conditions: studies described herein
# Procedure: Safety was assessed at all visits, and will include monitoring of local adverse experiences, Investigator Cutaneous Safety Assessment rating of dryness and scaling and Local Tolerability Assessment rating of itching and burning/stinging on a scale ranging from 0 (None) to 3 (Severe); patients complete a Patient Reported Outcomes (PRO) questionnaire at Visit 2, 3, 4, 5 and 6 and Rosacea Quality of Life Questionnaire (RosaQoL) at Baseline and Visit 6 or at early termination. Standardized photography of facial rosacea at Visit 2, 3, 4, 5 and 6 was performed at select site(s).
# In addition to IGA, at each visit, the following safety measures were recorded: monitoring for any AE (adverse effects) including local and systemic; investigator Cutaneous Safety Assessment rating of erythema, dryness and scaling and Local Tolerability Assessments rating of itching and burning/stinging on a scale ranging from 0 (None) to 3 (Severe).
# as §2
# rosacea = conditions: BPO as the sole active agent (Gul 2008); cited from earlier work
# [4] = after at least 12 weeks of treatment
smiles,measurement,setting,value
"O=C(OOC(=O)c1ccccc1)c1ccccc1 [BPO, Benzoyl peroxide]",success in IGA,[1]; after 2 weeks of BPO-treatment,about 10%
same,success in IGA,[1]; after only 4 weeks of treatment,about 25%
same,decrease in inflammatory lesions,[2]; [4],over 69%
same,decrease in inflammatory lesions relative to effect of vehicle cream,[2]; [4],more than 1.5 ×
same,"decrease in inflammatory lesions, on average",[2]; after only 2 weeks of treatment,about 40%
same,decrease in inflammatory lesions,[2]; in 4 weeks,over 58%
same,decrease in inflammatory lesions,[2]; in 8 weeks,about 70%
same,percentage of patients reporting no subcutaneous reactions compared with vehicle,[3],"comparable, and for some conditions, surprisingly, higher"
same,response of lesions,rosacea,unresponsive
